The experiment concerns the target T1, K-Ras G12D (Homo sapiens, UniProt P01116, G12D).
T1 construct: AGS (Cobioer, CBP60476) cell lines which harbor KRAS G12D mutation; host or cells: AGS
Put plainly: p-ERK Cellular 2-Plate Assay (Biological Example 2). The class given is cell-based. Particulars: AGS cells (KRAS G12D), 3 h treatment, AlphaLISA p-ERK1/2, 2-plate; Biological Example 2 (unmarked values); read-out: AGS PERK EC50. As for the experimental part: The ability of the compound of Formula (IIA′), (II′), or (II) or a pharmaceutically acceptable salt thereof (test compound) to inhibit K-Ras G12D activity was tested using AGS (Cobioer, CBP60476) cell lines which harbor KRAS G12D mutation as described below.
AGS (Cobioer, CBP60476) were seeded in 384-well plates and cultured overnight (10.000 cells per well 40 μl total volume). The following morning, cells were treated with test compound, with staring concentration at 10 μM and 3-fold dilution down to 0.5 nM for 3 h at 37° C., DMSO treatment served as control. p-ERK was then measured using AlphaLISA SureFire Ultra p-ERK1/2 (Thr202/Tyr204) Assay Kit (Perkin Elmer, cat #ALSU-PERK) following the manufacturer's instruction as follows.
Briefly, the culture medium was removed and 20 μl 1× lysis buffer was added to each well, followed by 30 minutes incubation on a plate shaker at room temperature. Then 10 μl of lysate was transferred to a white 384-well plate. Acceptor mixture was prepared according to manufacturer's instruction. 5 μl acceptor mixture was added to the cell lysate and the plate was wrapped with foil, spun at 500 rpm for 10 s, and incubated at RT for 60 min. Donor mixture was prepared under subdued light. 5 μl donor mixture was added to the cell lysate and the plate was spun at 500 rpm for 10s and incubated at RT for another 60 min. in the dark. Signal was then measured on a EnVision 2105 multimode plate reader. Percentage inhibition was calculated with DMSO treatment as 100% of signal, and IC50 was calculated by XLfit 5.5.x.

T1 sequence (P01116 1-188 isoform P01116-2 G12D): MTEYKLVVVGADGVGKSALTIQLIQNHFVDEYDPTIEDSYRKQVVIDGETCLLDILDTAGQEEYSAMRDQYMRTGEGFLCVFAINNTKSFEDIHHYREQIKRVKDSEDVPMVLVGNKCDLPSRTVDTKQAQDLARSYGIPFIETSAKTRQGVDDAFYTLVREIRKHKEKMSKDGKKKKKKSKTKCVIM

For the compound `C#Cc1cccc2cc(O)cc(-c3ncc4c(N5CC6CCC(C5)N6)nc(OCC56CCCN5Cc5cnccc56)nc4c3F)c12` (centres unmarked) [Example 31, 4-(4-(3,8-diazabicyclo[3.2.1]octan-3-yl)-2-((6,7-dihydro-5H-pyrido[4,3-a]pyrrolizin-4b(9H)-yl)methoxy)-8-fluoropyrido[4,3-d]pyrimidin-7-yl)-5-ethynylnaphthalen-2-ol], the EC50 is 4.1 nM.

For the compound `C#Cc1cccc2cc(O)cc(-c3ncc4c(N5CC6CCC(C5)N6)nc(OCC56CCCN5Cc5ccncc56)nc4c3F)c12` (centres unmarked) [Example 32, 4-(4-(3,8-diazabicyclo[3.2.1]octan-3-yl)-2-((8,9-dihydro-5H-pyrido[3,4-a]pyrrolizin-9a(7H)-yl)methoxy)-8-fluoropyrido[4,3-d]pyrimidin-7-yl)-5-ethynylnaphthalen-2-ol], the EC50 was determined as 6 nM.

Turning to `C#Cc1cccc2cc(O)cc(-c3ncc4c(N5C[C@H]6CC[C@@H](C5)N6)nc(OCC56CCCN5Cc5c(COC)cccc56)nc4c3F)c12` (stereo partly drawn) [Example 33, 4-(4-((1R,5S)-3,8-diazabicyclo-[3.2.1]octan-3-yl)-8-fluoro-2-((6-(methoxymethyl)-2,3-dihydro-1H-pyrrolo[2,1-a]isoindol-9b(5H)-yl)methoxy)-pyrido[4,3-d]pyrimidin-7-yl)-5-ethynylnaphthalen-2-ol], the EC50 amounted to 1.4 nM.

Turning to `C#Cc1cccc2cc(O)cc(-c3ncc4c(N5C[C@H]6CC[C@@H](C5)N6)nc(OCC56CCCN5Cc5c(C(F)(F)F)cccc56)nc4c3F)c12` (stereo partly drawn) [Example 34, 4-(4-((1R,5S)-3,8-diazabicyclo[3.2.1]octan-3-yl)-8-fluoro-2-((6-(trifluoromethyl)-2,3-dihydro-1H-pyrrolo[2,1-a]isoindol-9b(5H)-yl)methoxy)pyrido-[4,3-d]pyrimidin-7-yl)-5-ethynylnaphthalen-2-ol], the EC50 amounted to 25 nM.

Take `C#Cc1cccc2cc(O)cc(-c3ncc4c(N5C[C@H]6CC[C@@H](C5)N6)nc(OCC56CCCN5Cc5c6cnn5C)nc4c3F)c12` (stereo partly drawn) [Example 36, 4-(4-((1R,5S)-3,8-diazabicyclo[3.2.1]octan-3-yl)-8-fluoro-2-((1-methyl-1,5,6,8-tetrahydropyrazolo[4,3-a]pyrrolizin-3b(4H)-yl)methoxy)pyrido[4,3-d]pyrimidin-7-yl)-5-ethynylnaphthalen-2-ol]: the EC50 amounted to 5.2 nM.

As for `C#Cc1cccc2cc(O)cc(-c3ncc4c(N5C[C@H]6CC[C@@H](C5)N6)nc(OC[C@@]56CC7COc8ccccc8C7N5C[C@H](F)C6)nc4c3F)c12` (stereo partly drawn) [Example 40, 4-(4-((1R,5S)-3,8-diazabicyclo[3.2.1]octan-3-yl)-8-fluoro-2-(((9R)-9-fluoro-6a,9,10,11a-tetrahydro-6H,7H-chromeno[3,4-b]pyrrolizin-7a(8H)-yl)methoxy)pyrido[4,3-d]pyrimidin-7-yl)-5-ethynylnaphthalen-2-ol], the EC50 turned out to be 3.6 nM.

Turning to `C#Cc1c(F)ccc2cc(O)cc(-c3ncc4c(N5C[C@H]6CC[C@@H](C5)N6)nc(OC[C@@]56CC7COc8ccccc8C7N5C[C@@H](F)C6)nc4c3F)c12` (stereo partly drawn) [Example 41, 4-(4-((1R,5S)-3,8-diazabicyclo[3.2.1]octan-3-yl)-8-fluoro-2-(((9S)-9-fluoro-6a,9,10,11a-tetrahydro-6H,7H-chromeno[3,4-b]pyrrolizin-7a(8H)-yl)methoxy)pyrido[4,3-d]pyrimidin-7-yl)-5-ethynyl-6-fluoronaphthalen-2-ol], the half-maximal effective concentration (EC50) was more than 100 nM.

As to `C#Cc1c(F)ccc2cccc(-c3ncc4c(N5C[C@H]6CC[C@@H](C5)N6)nc(OCC56CCCN5CC(=CC)C6)nc4c3F)c12` (stereo partly drawn) [Example 48, 4-((1R,5S)-3,8-diazabicyclo[3.2.1]octan-3-yl)-2-((2-ethylidenetetrahydro-1H-pyrrolizin-7a(5H)-yl)methoxy)-7-(8-ethynyl-7-fluoronaphthalen-1-yl)-8-fluoropyrido[4,3-d]pyrimidine], the 50% effective concentration (EC50) was found to be 33 nM.

Usually EC50 stands for the concentration that produces a half-maximal response.

These data come from patent US20240166669A1, “QUINAZOLINE AMINE DERIVATIVES AS KRAS INHIBITORS” (Nikang Therapeutics, Inc., priority 2021, published 2024).
